From ChEMBL document CHEMBL6134773, “Metal-free synthesis of N-fused quinazolino-quinazoline-diones as a MALAT1 RNA triple helix intercalator” (RSC Med Chem, 2025)
pEC50, pIC50: −log10 of the molar value. Calls of active or inactive are those of the source. The rule behind the calls is not given here.

How the values were obtained:
DNA [1] = assay: Binding affinity to dsDNA (unknown origin) by fluorescence-based screening assay; assay type: nucleic-acid assay
HeLa = assay: Cytotoxicity against human HeLa cells; assay type: functional, cell-based
MALAT1 triple helix RNA [2] = assay: Binding affinity to MALAT1 triple helix RNA (unknown origin) assessed as RNA intercalation by measuring change in fluorescence intensity by fluorescence-based screening assay; assay type: nucleic-acid assay
MALAT1 triple helix RNA [3] = assay: Binding affinity to MALAT1 triple helix RNA (unknown origin) assessed as […] by measuring conformational change at 2.5 to 5.0 uM at 25 to 65 degreeC by temperature dependent CD analysis; assay type: nucleic-acid assay; conditions: dose 2.5-5 µM
DNA [4] = assay: Binding affinity to dsDNA (unknown origin) assessed as DNA intercalation by measuring change in fluorescence intensity by fluorescence-based screening assay; assay type: nucleic-acid assay
MALAT1 triple helix RNA [5] = assay: Binding affinity to MALAT1 triple helix RNA (unknown origin) by fluorescence-based screening assay; assay type: nucleic-acid assay
L929 = assay: Cytotoxicity against mouse L929 cells; assay type: toxicity, cell-based
SK-OV-3 = assay: Cytotoxicity against human SK-OV-3 cells; assay type: functional, cell-based
MCF7 = assay: Cytotoxicity against human MCF7 cells assessed as cell viability incubated for 48 hrs; assay type: functional, cell-based; conditions: MCF7, 48 h

Compound | deltaFI (DNA [4]) | pEC50 (MALAT1 triple helix RNA [5]) | also measured
O=c1c2ccccc2n2c(=O)c3ccccc3nc2n1CCCn1c(=O)c2ccccc2n2c(=O)c3ccccc3nc12 | 1 | 5.96 | pEC50 (DNA [1]): 5.85; pIC50 (HeLa): 4.20; deltaFI (MALAT1 triple helix RNA [2]): 1; Activity (MALAT1 triple helix RNA [3]): Active; Activity (L929): Non-toxic; pIC50 (SK-OV-3): 5.10
COc1cccc2c1C(=O)c1c(O)c3c(c(O)c1C2=O)C[C@@](O)(C(=O)CO)C[C@@H]3O[C@H]1C[C@H](N)[C@H](O)[C@H](C)O1 [DOXORUBICIN] | – | – | pIC50 (SK-OV-3): 6.27
COC(=O)c1ccc(Cn2c(=O)c3ccccc3n3c(=O)c4ccccc4nc23)cc1 | 0.426 | – | –
N=C(N)c1ccc(-c2ccc(-c3ccc(C(=N)N)cc3)o2)cc1 [FURAMIDINE] | – | 6.22 | pIC50 (MCF7): 4.05
O=c1c2ccccc2n2c(=O)c3ccccc3nc2n1Cc1ccc([N+](=O)[O-])cc1 | 0.079 | – | –
O=c1c2ccccc2n2c(=O)c3ccccc3nc2n1Cc1ccc(OC(F)(F)F)cc1 | 0.29 | – | –
O=c1c2ccccc2n2c(=O)c3ccccc3nc2n1Cc1cccc2ccccc12 | 0.014 | – | –
O=c1c2ccccc2n2c(=O)c3ccccc3nc2n1-c1ccc(C(F)(F)F)cc1 | 0.084 | – | –
N#Cc1ccc(Cn2c(=O)c3ccccc3n3c(=O)c4ccccc4nc23)cc1 | 0.172 | – | –
O=c1c2ccccc2n2c(=O)c3ccccc3nc2n1Cc1cccc(C(F)(F)F)c1 | 0.76 | 6.10 | pEC50 (DNA [1]): 6.00; deltaFI (MALAT1 triple helix RNA [2]): 0.504
